In the test the test system is Phytophthora infestans. Format: in vivo. The note with it: individual active compound, protective, assessed 6 days after infection.

The structures appear in SMILES notation. Like-named read-outs stand apart in the source and are kept apart here.

This is an account of results in patent publication US20070054926A1 (priority 2003, published 2007).

Consider `Fc1ccc([C@]2(Cn3cncn3)O[C@H]2c2ccccc2Cl)cc1` (racemic) [compound II, (2RS,3SR)-1-[3-(2-chlorophenyl)-2,3-epoxy-2-(4-fluorophenyl)-propyl]-1H-1,2,4-triazole], for which the “Efficacy in % of the untreated control” value (16 ppm in the spray liquor) is on record as 10%.

For the compound `CC1CCN(c2c(-c3c(F)cccc3Cl)c(Cl)nc3ncnn23)CC1` [A], the “Efficacy in % of the untreated control” value stood at 0% (4 ppm in the spray liquor), 0% (16 ppm in the spray liquor) and 0% (63 ppm in the spray liquor).

In the case of `C[C@H](Nc1c(-c2c(F)cc(F)cc2F)c(Cl)nc2ncnn12)C(F)(F)F` [B], the “Efficacy in % of the untreated control” value reads like this: (4 ppm in the spray liquor) 0%; (16 ppm in the spray liquor) 0%; (63 ppm in the spray liquor) 10%.

On to `CC1CCN(c2c(-c3c(F)cc(F)cc3F)c(Cl)nc3ncnn23)CC1` [compound I, 5-chloro-7-(4-methylpiperidin-1-yl)-6-(2,4,6-trifluorophenyl)-[1,2,4]triazolo[1,5-a]pyrimidine], for which the “Efficacy in % of the untreated control” value is 0% (4 ppm in the spray liquor), 10% (16 ppm in the spray liquor) and 10% (63 ppm in the spray liquor).
